PubChem BioAssay AID1347054 (Pharmacoinformatics Research Group Wien, 2019)
Active and inactive are the calls of the source.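 How the source made its calls: active means clear block of the BCRP drug efflux pump at 10 µM versus solvent-only wells, p under 0.05; inactive means the rest.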

Biological target: Broad substrate specificity ATP-binding cassette transporter ABCG2 (Homo sapiens) (UniProt Q9UNQ0)
Test: ABCG2-mediated mitoxantrone transport inhibition – PLB985 cells, flow cytometry (AID 1347054)
Settings: PLB985-BCRP cells, mitoxantrone accumulation, at 10 µM, active compounds read high

Broad substrate specificity ATP-binding cassette transporter ABCG2 (Homo sapiens), sequence (Q9UNQ0 whole entry, looked up): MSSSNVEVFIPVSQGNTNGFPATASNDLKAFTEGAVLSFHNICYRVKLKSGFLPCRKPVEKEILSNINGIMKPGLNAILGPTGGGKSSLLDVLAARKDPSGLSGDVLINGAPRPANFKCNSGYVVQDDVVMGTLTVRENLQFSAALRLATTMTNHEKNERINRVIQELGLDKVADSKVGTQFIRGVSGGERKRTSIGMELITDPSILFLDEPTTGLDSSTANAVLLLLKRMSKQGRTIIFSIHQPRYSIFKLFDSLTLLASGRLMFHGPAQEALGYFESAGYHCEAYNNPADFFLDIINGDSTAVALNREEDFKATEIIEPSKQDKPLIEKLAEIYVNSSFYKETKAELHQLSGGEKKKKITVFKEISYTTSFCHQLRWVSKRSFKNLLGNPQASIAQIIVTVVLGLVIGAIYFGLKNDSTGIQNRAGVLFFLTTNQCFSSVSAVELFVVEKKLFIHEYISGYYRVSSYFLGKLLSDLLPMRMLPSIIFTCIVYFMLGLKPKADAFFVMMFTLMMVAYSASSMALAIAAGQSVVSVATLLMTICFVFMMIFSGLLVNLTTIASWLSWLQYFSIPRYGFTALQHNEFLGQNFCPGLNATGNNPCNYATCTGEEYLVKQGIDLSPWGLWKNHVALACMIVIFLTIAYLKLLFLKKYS

Which inhibition does the source give for `C=C1CC[C@H](O)C/C1=C/C=C1\CCC[C@]2(C)[C@@H]([C@H](C)CCCC(C)C)CC[C@@H]12` here?
The inhibition was 1.28% (inactive).

`COc1cc(N)c(Cl)cc1C(=O)N[C@@H]1CCN(CCCOc2ccc(F)cc2)C[C@@H]1OC` was tested. Which inhibition did it give?
The inhibition was 83.8%.

For `CN(Cc1ccc(C(C)(C)C)cc1)Cc1cccc2ccccc12`, which inhibition is on record?
The inhibition was 10.8% (inactive).

With `CS(C)=O` as the compound, how does the inhibition read?
The inhibition was 0% (inactive).

Which inhibition does the source give for `CN(C/C=C/C#CC(C)(C)C)Cc1cccc2ccccc12` here?
The inhibition was 9.86% (inactive).

Which inhibition does the source give for `COc1cc(NS(C)(=O)=O)ccc1Nc1c2ccccc2nc2ccccc12` here?
Its inhibition is 13.7% (inactive).

With `COc1ccc2c(c1)C13CCCC[C@@H]1C(C2)N(C)CC3` (stereo partly specified) as the compound, how does the inhibition read?
The inhibition was -6.11% (inactive).

`C[C@]12CCC(=O)C=C1[C@@H]1C[C@@H]1[C@H]1[C@@H]3[C@@H]4C[C@@H]4[C@@]4(CCC(=O)O4)[C@@]3(C)CC[C@@H]12` was tested. Which inhibition did it give?
The inhibition was 14.4% (inactive).

With `CCCCN(CCCC)CCC(O)c1cc2c(Cl)cc(Cl)cc2c2cc(C(F)(F)F)ccc12` (stereo unspecified) as the compound, how does the inhibition read?
Its inhibition is -9.66% (inactive).

For `O=C(Nc1c(Cl)cncc1Cl)c1ccc(OC(F)F)c(OCC2CC2)c1`, which inhibition is on record?
Its inhibition is 61.7%.

How did the inhibition turn out when `COc1ccc(C(=O)Nc2ccccc2CCC2CCCCN2C)cc1` (stereo unspecified) was run?
The inhibition was 13.3% (inactive).
